The values below come from US5998596A, “Inhibition of protein kinase activity by aptameric action of oligonucleotides” (The United States of America as represented by the …).

What is called IC50 is the concentration at which inhibition is half-maximal.

One data set relates to p210^bcr-abl kinase. The experiment in a line: Immunoprecipitation kinase assay of p210bcr-abl (autophosphorylation), ODN added to kinase reaction. The conditions noted are these: ODN at 1 μM added to the immunoprecipitated enzyme. The data set is classed as biochemical, human. The procedure: The p210^bcr-abl kinase, src kinase and cdc-2 kinase were immunoprecipitated from K562 cells. The p145^abl kinase was immunoprecipitated from PC3M cells, PDGF receptor kinase from 3T3 cells, and EGF receptor kinase from A431 cells. MAP kinase was utilized as a pure protein and lck kinase was immunoprecipitated from peripheral blood lymphocytes of a normal volunteer.
(§1) Cells were washed in phosphate buffered saline (PBS) and 0.5-5×10^6 cells were solubilized in 1 ml of the specified cell lysis buffers. Unless otherwise stated, all cell lysis buffers contained the following protease inhibitors: 20 μg/ml leupeptin, 1 μg/ml aprotinin, and 1 mM phenylmethylsulfonylfluroide. For p210^bcr-abl and […] immunoprecipitation, cells were lysed with ABL lysis buffer (25 mM imidazole, pH 7.2, 0.5% NP40, 50 mM NaCl, 1 mM Na3 VO4) and lysates were clarified at 14,000 g. 4° C. for 30 minutes. Cell lysis for all other proteins was performed according to the references describing the various immunoprecipitation kinase assays.
(§2) Immunoprecipitation kinase assays of p210^bcr-abl p145^abl were performed as described, with modifications (15). Briefly, for p210^bcr-abl, 1 μg of anti-bcr antibody (clone 7C6, Oncogene Science, Uniondale, N.Y.) was added to lysates prepared from 0.5-1×10^6 K562 cells. For p145^abl, 1 μg of anti-c-abl antibody (clone 24-21), which binds to the C-terminal domain of p145^abl, was added to lysates prepared from 5×10^6 PC3M cells. After incubating 1 hour at 4° C., complexes were precipitated by incubating with protein A-Sepharose coated with rabbit anti-mouse immunoglobulin (Cappel Research Products, Durham, N.C.) for 30 minutes. The complexes were then washed as follows: ABL lysis buffer×2, PBS×1, and ABL assay buffer×1 (24 mM imidazole, pH 7.2, 1 mg/ml bovine serum albumin, and 10 mM MnCl). For p145^abl assays ABL assay buffer contained 20 mM MnCl. To access the activity of p210^bcr-abl on substrate phosphorylation, acid inactivated enolase (Sigma Chemical Co., St. Louis, Mo.) was added as described (15).
(§3) ODNs were added to kinase reaction buffers not more than 5 minutes prior to the addition of ATP. Reactions were initiated by the addition of [γ^-32 P] ATP (3000 Ci/mmole; Amersham Corp., Arlington Heights, Ill.) and quenched by the addition of 5× gel loading buffer and heating to 95° C. Kinase reactions were run for 1-10 minutes at room temperature, except for EGFR, p145^abl, and MAP kinase, which were run at 30° C. The products were then electrophoresed on SDS-polyacrylamide gels: 7% for p210^bcr-abl, EGFR, and PDGFR, 8% for p145^abl, 10% for src, lck, and cdc-2 kinase, and 12% for MAP kinase. Gels were dried and reaction products were visualized by direct autoradiography at -70° C. with Kodak X-OMAT AR film. To determine the inhibitory concentration 50, i.e., the concentration required to inhibit enzyme activity by 50% (IC50) and Ki values, gel slices containing the band of interest were excised and analyzed by Cerenkov counting.

Data set [1] deals with p210^bcr-abl kinase in K562 cells. Nature of the data set: Immunoprecipitation kinase assay of p210bcr-abl from ODN treated K562 cells. The data set is classed as cell-based, human. The following applies: K562 cells treated with T-21 overnight, washed, calculated from FIG. 9A, read-out: IC50 of apparent reduction of p210^bcr-abl kinase activity. The procedure: as §2, §3
The effects of ODN1 on a cellular system were assessed. […] After 3 days, cells were washed and p210^bcr-abl kinase activity was measured. […] Neither cellular p210^bcr-abl protein content nor cell growth was affected by ODN treatment (data not shown).

The next data set has as its system p210^bcr-abl. Nature of the data set: Inhibition of p210bcr-abl immunoprecipitation by BCR directed antibody clone 7C6. The data set is classed as binding, human. The conditions noted are these: 10 μM ODN added to K562 cell lysate, antibody clone 7C6, Western for phosphotyrosine. The procedure: FIG. 9C. Inhibition of p210^bcr-abl immunoprecipitation by T-21. […] T-21 was added to the lysate from 1×10^6 K562 cells (lane 2) and p210^bcr-abl immunoprecipitated with the BCR directed antibody, clone 7C6; no ODN was added to the lysate immunoprecipitated in lane 1. After extensive washing, the immunoprecipitates were separated on a 7% SDS polyacrylamide gel, transferred to nitrocellulose, and probed with an anti-phosphotyrosine antibody. Data are representative of at least two separate experiments.
In experiments designed to test the specificity of BCR-AS, an ODN composed solely of thymidylic acid residues (T-21) i.e., 5' […] 3' (SEQ ID NO.: 12) was capable of interfering with p210^bcr-abl immunoprecipitation. […] From the data in FIG. 9A, one can calculate an IC50 of less than 1 μM. […] This apparent discrepancy appears to be due to the ability of T-21 to inhibit precipitation of p210^bcr-abl by the BCR-directed antibody, clone 7C6. […] Inhibition of p210^bcr-abl immunoprecipitation was not seen with the other ODNs used in this study (data now shown).

Data set [2] concerns the target p145 ABL tyrosine kinase (c-Abl) (UniProt P00519 P00519:1-1130). Nature of the data set: inhibition; 20 mM Mn, 30 C. The conditions noted are these: tags: immunoprecipitated from PC3M cells with anti-c-abl clone 24-21. On the procedure:
as §1, with “0.5–5×10^6” for “0.5-5×10^6”, “µg/ml” for “μg/ml”, “Na_3VO_4)” for “Na3 VO4)”
Immunoprecipitation kinase assays of p210^bcr-abl p145^abl were performed as described, with modifications (15). Briefly, for p210^bcr-abl, 1 µg of anti-bcr antibody (clone 7C6, Oncogene Science, Uniondale, N.Y.) was added to lysates prepared from 0.5–1×10^6 K562 cells. For p145^abl, 1 µg of anti-c-abl antibody (clone 24-21), which binds to the C-terminal domain of p145^abl, was added to lysates prepared from 5×10^6 PC3M cells. After incubating 1 hour at 4° C., complexes were precipitated by incubating with protein A-Sepharose coated with rabbit anti-mouse immunoglobulin (Cappel Research Products, Durham, N.C.) for 30 minutes. […]

p145 ABL tyrosine kinase (c-Abl), sequence (P00519 whole entry, one chain of several): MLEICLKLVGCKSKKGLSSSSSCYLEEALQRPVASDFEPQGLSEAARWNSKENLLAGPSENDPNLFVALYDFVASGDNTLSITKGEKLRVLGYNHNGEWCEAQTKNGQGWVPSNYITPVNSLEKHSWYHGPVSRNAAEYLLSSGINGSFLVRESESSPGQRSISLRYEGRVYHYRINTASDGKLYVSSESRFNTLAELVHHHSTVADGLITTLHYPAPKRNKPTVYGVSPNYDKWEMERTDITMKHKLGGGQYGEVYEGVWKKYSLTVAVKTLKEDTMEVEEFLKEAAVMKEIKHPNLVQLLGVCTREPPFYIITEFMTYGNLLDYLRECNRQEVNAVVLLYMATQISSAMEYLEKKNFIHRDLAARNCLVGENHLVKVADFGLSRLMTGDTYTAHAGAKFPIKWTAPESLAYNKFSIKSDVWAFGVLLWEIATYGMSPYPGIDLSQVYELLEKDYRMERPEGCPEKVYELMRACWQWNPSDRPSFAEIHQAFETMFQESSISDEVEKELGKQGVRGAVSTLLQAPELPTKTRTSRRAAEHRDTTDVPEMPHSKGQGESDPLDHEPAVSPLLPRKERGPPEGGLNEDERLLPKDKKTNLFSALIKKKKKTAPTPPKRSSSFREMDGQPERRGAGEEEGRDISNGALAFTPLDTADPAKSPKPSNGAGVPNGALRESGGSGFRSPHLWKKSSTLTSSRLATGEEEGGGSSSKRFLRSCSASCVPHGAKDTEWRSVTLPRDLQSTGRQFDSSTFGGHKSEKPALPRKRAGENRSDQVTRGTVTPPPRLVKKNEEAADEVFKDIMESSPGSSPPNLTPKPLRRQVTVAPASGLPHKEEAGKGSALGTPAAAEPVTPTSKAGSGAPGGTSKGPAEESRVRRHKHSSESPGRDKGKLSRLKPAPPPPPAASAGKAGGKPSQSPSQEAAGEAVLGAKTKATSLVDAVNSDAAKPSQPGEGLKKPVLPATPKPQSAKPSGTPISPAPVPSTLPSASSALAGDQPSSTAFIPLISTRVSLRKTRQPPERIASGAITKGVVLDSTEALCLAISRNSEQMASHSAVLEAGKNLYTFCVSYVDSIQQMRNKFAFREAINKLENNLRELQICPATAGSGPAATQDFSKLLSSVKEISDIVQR

Regarding “5' TTTTTTTTTTTTTTTTTTTTT 3' (chemistry not given here) [T-21, a 21mer composed solely of thymidylic acid residues]”, in the data set with p210^bcr-abl kinase, the “inhibition of p210^bcr-abl kinase activity in vitro (in words)” value is given as “only moderate inhibition”. For the same molecule, the IC50 in data set [1] is below 1000 nM. In the data set with p210^bcr-abl, the “inhibition of p210^bcr-abl immunoprecipitation” value was “nearly total inhibition”.
In data set [2], GTCCACCATGGCGCGGCCGGC (ssDNA, PS, two linkages at each of 5' and 3' ends, rest phosphodiester) [ODN1 (BCR-AS), phosphorothioate capped] gave an IC50 of 620 nM.
